The record followed here is BindingDB's records for doi:10.1021/jm9604383 (Goethe-University Frankfurt, 2021).

The target in test [1] is T1, Adenosine receptor A2b (Homo sapiens, UniProt P29275).
T1 sequence (P29275 whole entry): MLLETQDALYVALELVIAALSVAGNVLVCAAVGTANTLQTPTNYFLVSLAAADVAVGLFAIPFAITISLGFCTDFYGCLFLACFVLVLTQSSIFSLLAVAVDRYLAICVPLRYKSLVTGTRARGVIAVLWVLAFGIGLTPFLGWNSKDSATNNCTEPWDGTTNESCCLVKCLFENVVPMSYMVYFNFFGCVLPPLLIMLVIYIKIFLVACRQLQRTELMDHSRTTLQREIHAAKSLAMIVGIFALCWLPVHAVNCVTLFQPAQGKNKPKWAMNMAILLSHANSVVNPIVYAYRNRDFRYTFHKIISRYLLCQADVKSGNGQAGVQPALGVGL
In words: Inhibition of human A2b adenosine receptor.

A further test deals with T2, Adenosine receptor A1 (Homo sapiens, UniProt P30542).
T2 sequence (P30542 whole entry): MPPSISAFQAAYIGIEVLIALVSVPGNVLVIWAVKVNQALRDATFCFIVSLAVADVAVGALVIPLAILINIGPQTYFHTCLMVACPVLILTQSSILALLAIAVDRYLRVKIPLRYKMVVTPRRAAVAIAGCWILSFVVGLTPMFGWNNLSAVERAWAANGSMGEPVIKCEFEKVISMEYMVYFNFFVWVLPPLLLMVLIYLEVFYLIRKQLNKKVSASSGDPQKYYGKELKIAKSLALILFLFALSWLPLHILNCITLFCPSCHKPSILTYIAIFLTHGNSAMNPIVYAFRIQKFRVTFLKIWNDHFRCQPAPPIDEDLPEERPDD
In words: Binding affinity to human A1 adenosine receptor assessed as inhibition constant.

The target in test [2] is T3, Palmitoleoyl-protein carboxylesterase NOTUM (Homo sapiens, UniProt Q6P988).
T3 sequence (Q6P988 whole entry): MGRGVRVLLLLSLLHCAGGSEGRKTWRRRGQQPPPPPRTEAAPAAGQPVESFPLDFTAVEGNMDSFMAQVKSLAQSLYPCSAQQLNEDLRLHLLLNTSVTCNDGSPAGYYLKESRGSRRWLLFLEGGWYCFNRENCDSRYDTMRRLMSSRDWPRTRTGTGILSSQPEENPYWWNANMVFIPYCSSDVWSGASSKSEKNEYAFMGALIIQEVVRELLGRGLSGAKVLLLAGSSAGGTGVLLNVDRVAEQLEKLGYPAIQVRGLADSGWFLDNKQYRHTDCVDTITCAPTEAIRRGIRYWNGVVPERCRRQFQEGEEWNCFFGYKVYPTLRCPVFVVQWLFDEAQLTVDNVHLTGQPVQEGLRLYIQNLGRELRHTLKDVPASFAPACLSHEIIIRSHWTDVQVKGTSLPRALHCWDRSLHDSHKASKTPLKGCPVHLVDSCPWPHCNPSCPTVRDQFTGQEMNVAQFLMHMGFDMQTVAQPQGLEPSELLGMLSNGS
In words: Inhibition of human notum using OTPS as substrate incubated for 16 hrs by fluorescent based assay.

The target of test [3] is T4, Adenosine receptor A3 (Homo sapiens, UniProt P0DMS8).
T4 sequence (P0DMS8 whole entry): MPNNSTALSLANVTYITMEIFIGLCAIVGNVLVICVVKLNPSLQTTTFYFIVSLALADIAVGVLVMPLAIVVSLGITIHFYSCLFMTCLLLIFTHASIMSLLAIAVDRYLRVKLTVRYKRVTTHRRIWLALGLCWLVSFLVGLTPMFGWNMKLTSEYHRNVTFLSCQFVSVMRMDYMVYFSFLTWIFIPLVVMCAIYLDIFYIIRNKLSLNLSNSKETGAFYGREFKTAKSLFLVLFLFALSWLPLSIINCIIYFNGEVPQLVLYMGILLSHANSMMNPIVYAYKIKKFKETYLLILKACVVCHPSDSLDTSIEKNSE
The test is described as follows: Displacement of [1251]AB-MEC from human A3 receptor assessed as inhibition constant.

For test [4], the target named is T1, Adenosine receptor A2b. In words: Displacement of [3H]DPCPX to human A2B adenosine receptor derived from HEK cells assessed as inhibition constant. (In a radioligand displacement assay an active substance lowers the binding of a labelled ligand.)
The target in test [5] is T4, Adenosine receptor A3. The test is described as follows: Binding affinity to human A3 adenosine receptor assessed as inhibition constant.

Take `Cn1cnc2c1c(=O)[nH]c(=O)n2C` [theobromine]: the 50% inhibitory concentration (IC50) (as a rule, the point on the concentration scale where inhibition reaches its midpoint) at Adenosine receptor A2b [1] came out at 130000 nM.

As to `CCCn1c(=O)c2nc(-c3ccc(S(=O)(=O)NCCN(C)C)cc3)[nH]c2n(CCC)c1=O`, the Ki (commonly the dissociation constant of the complex between target and ligand, obtained from inhibition or displacement) on Adenosine receptor A1 turned out to be 6.5 nM.

For `CCCn1c(=O)c2nc(-c3ccc(OCC(N)=O)cc3O)[nH]c2n(CCC)c1=O`, on Adenosine receptor A1, the inhibition constant Ki was 6.5 nM.

With `CCCn1c(=O)c2nc(C3CC4CC3C3OC43)[nH]c2n(CCC)c1=O` (stereo not drawn) [8-(3-Oxa-tricyclo[3.2.1.0*2,4*]oct-6-yl)-1,3-dipropyl-3,7-dihydro-purine-2,6-dione], at Adenosine receptor A1, the Ki was determined as 0.95 nM.

`Cn1c(=O)c2c(ncn2C)n(C)c1=O` registered an IC50 in test [2] of 19000 nM.

As to `CCCCn1c(=O)c2c(ncn2[C@@H]2O[C@H](C(=O)NC)[C@@H](O)[C@H]2O)n(CCCC)c1=O` [5-(1,3-Dibutyl-2,6-dioxo-1,2,3,6-tetrahydro-purin-7-yl)-3,4-dihydroxy-tetrahydro-furan-2-carboxylic acid methylamide], on Adenosine receptor A3 [3], the inhibition constant Ki was 229 nM.

For `CCCn1c(=O)[nH]c2nc(-c3cnn(Cc4noc(-c5ccc(Cl)cc5)n4)c3)[nH]c2c1=O` [8-(1-((5-(4-chlorophenyl)-1,2,4-oxadiazol-3-yl)methyl)-1H-pyrazol-4-yl)-1-propyl-1H-purine-2,6(3H,7H)-dione], the Ki on Adenosine receptor A2b [4] turned out to be 5.5 nM.

As for `CC[C@@H]1Cn2c(c3nc(-c4cc(Cl)cc(Cl)c4Cl)nc-3n(C)c2=O)N1`, the Ki at Adenosine receptor A3 [5] turned out to be 0.433 nM.
